Experimental data published in PubChem BioAssay (NCI).
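Briefly, cells in 96-well plates were exposed to five compound concentrations for 48 h, and endpoints were estimated by linear interpolation. GI50 = concentration required for 50% inhibition of growth. TGI marks complete inhibition of growth.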

Columns and labels:
Assay in all cases: NCI tumour cell line growth inhibition, 48 h
IGROV1 ovarian = test system: IGROV1 ovarian
OVCAR-8 ovarian = test system: OVCAR-8 ovarian
SNB-19 CNS = test system: SNB-19 CNS
HL-60(TB) leukemia = test system: HL-60(TB) leukemia
SK-MEL-5 melanoma = test system: SK-MEL-5 melanoma
CCRF-CEM leukemia = test system: CCRF-CEM leukemia
MDA-MB-231 breast = test system: MDA-MB-231 breast
COLO 205 colon = test system: COLO 205 colon
PC-3 prostate = test system: PC-3 prostate
MCF7 breast = test system: MCF7 breast
SN12C renal = test system: SN12C renal
A549 NSCLC = test system: A549 NSCLC
ACHN renal = test system: ACHN renal
BT-549 breast = test system: BT-549 breast
SF-539 CNS = test system: SF-539 CNS
NCI-H23 lung = test system: NCI-H23 lung
NCI-H226 lung = test system: NCI-H226 lung
HOP-62 NSCLC = test system: HOP-62 NSCLC
OVCAR-3 ovarian = test system: OVCAR-3 ovarian
HOP-92 NSCLC = test system: HOP-92 NSCLC
DU-145 prostate = test system: DU-145 prostate
MOLT-4 leukemia = test system: MOLT-4 leukemia
T-47D breast = test system: T-47D breast
SR leukemia = test system: SR leukemia
UACC-257 melanoma = test system: UACC-257 melanoma
SNB-75 CNS = test system: SNB-75 CNS
SK-MEL-2 melanoma = test system: SK-MEL-2 melanoma
K-562 leukemia = test system: K-562 leukemia
SF-295 CNS = test system: SF-295 CNS
RXF 393 renal = test system: RXF 393 renal
TK-10 renal = test system: TK-10 renal
786-0 renal = test system: 786-0 renal
MALME-3M melanoma = test system: MALME-3M melanoma
HCC-2998 colon = test system: HCC-2998 colon
SK-MEL-28 melanoma = test system: SK-MEL-28 melanoma
RPMI-8226 leukemia = test system: RPMI-8226 leukemia
OVCAR-4 ovarian = test system: OVCAR-4 ovarian
MDA-MB-435 = test system: MDA-MB-435
SW-620 colon = test system: SW-620 colon
HT29 colon = test system: HT29 colon
SK-OV-3 ovarian = test system: SK-OV-3 ovarian
HCT-15 colon = test system: HCT-15 colon
UACC-62 melanoma = test system: UACC-62 melanoma
CAKI-1 renal = test system: CAKI-1 renal
SF-268 CNS = test system: SF-268 CNS
NCI/ADR-RES ovarian = test system: NCI/ADR-RES ovarian
UO-31 renal = test system: UO-31 renal
HCT-116 colon = test system: HCT-116 colon
M14 melanoma = test system: M14 melanoma
KM12 colon = test system: KM12 colon
NCI-H460 lung = test system: NCI-H460 lung
LOX IMVI melanoma = test system: LOX IMVI melanoma
NCI-H522 lung = test system: NCI-H522 lung
OVCAR-5 ovarian = test system: OVCAR-5 ovarian
A498 renal = test system: A498 renal
HS 578T breast = test system: HS 578T breast
U251 CNS = test system: U251 CNS

Compound: CC1(C)N=C(N)N=C(N)N1c1ccc(CCCCc2ccc(Cl)cc2S(=O)(=O)F)c(Cl)c1
- GI50 (IGROV1 ovarian): 0.192 µM
- TGI (IGROV1 ovarian): 21 µM
- GI50 (OVCAR-8 ovarian): 0.499 µM
- TGI (OVCAR-8 ovarian): 16.8 µM
- GI50 (SNB-19 CNS): 0.76 µM
- TGI (SNB-19 CNS): 21.3 µM
- GI50 (HL-60(TB) leukemia): 0.107 µM
- TGI (HL-60(TB) leukemia): 3.26 µM
- GI50 (SK-MEL-5 melanoma): 0.552 µM
- TGI (SK-MEL-5 melanoma): 12.6 µM
- GI50 (CCRF-CEM leukemia): 0.372 µM
- TGI (CCRF-CEM leukemia): 8.16 µM
- GI50 (MDA-MB-231 breast): 0.993 µM
- TGI (MDA-MB-231 breast): 11.4 µM
- GI50 (COLO 205 colon): 0.522 µM
- TGI (COLO 205 colon): 2.53 µM
- GI50 (PC-3 prostate): 0.323 µM
- TGI (PC-3 prostate): 16.7 µM
- GI50 (MCF7 breast): 0.327 µM
- TGI (MCF7 breast): 9.49 µM
- GI50 (SN12C renal): 0.34 µM
- TGI (SN12C renal): 14.7 µM
- GI50 (A549 NSCLC): 0.388 µM
- TGI (A549 NSCLC): 13.9 µM
- GI50 (ACHN renal): 2.62 µM
- TGI (ACHN renal): 17.6 µM
- GI50 (BT-549 breast): 2.64 µM
- TGI (BT-549 breast): 24.3 µM
- GI50 (SF-539 CNS): 0.539 µM
- TGI (SF-539 CNS): 6.76 µM
- GI50 (NCI-H23 lung): 0.537 µM
- TGI (NCI-H23 lung): 18.5 µM
- GI50 (NCI-H226 lung): 1.23 µM
- TGI (NCI-H226 lung): 29.2 µM
- GI50 (HOP-62 NSCLC): 0.63 µM
- TGI (HOP-62 NSCLC): 12.7 µM
- GI50 (OVCAR-3 ovarian): 0.762 µM
- TGI (OVCAR-3 ovarian): 12.2 µM
- GI50 (HOP-92 NSCLC): 1.32 µM
- TGI (HOP-92 NSCLC): 12.6 µM
- GI50 (DU-145 prostate): 0.558 µM
- TGI (DU-145 prostate): 15.8 µM
- GI50 (MOLT-4 leukemia): 0.436 µM
- TGI (MOLT-4 leukemia): 15.5 µM
- GI50 (T-47D breast): 1.87 µM
- TGI (T-47D breast): 7.56 µM
- GI50 (SR leukemia): 0.271 µM
- TGI (SR leukemia): 26.2 µM
- GI50 (UACC-257 melanoma): 0.808 µM
- TGI (UACC-257 melanoma): 17 µM
- GI50 (SNB-75 CNS): 1.39 µM
- TGI (SNB-75 CNS): 23 µM
- GI50 (SK-MEL-2 melanoma): 3.07 µM
- TGI (SK-MEL-2 melanoma): 25.1 µM
- GI50 (K-562 leukemia): 0.073 µM
- TGI (K-562 leukemia): 13.8 µM
- GI50 (SF-295 CNS): 0.409 µM
- TGI (SF-295 CNS): 12.8 µM
- GI50 (RXF 393 renal): 1.26 µM
- TGI (RXF 393 renal): 20.4 µM
- GI50 (TK-10 renal): 5.82 µM
- TGI (TK-10 renal): 25.7 µM
- GI50 (786-0 renal): 0.428 µM
- TGI (786-0 renal): 8.08 µM
- GI50 (MALME-3M melanoma): 1.65 µM
- TGI (MALME-3M melanoma): 14.9 µM
- GI50 (HCC-2998 colon): 1.15 µM
- TGI (HCC-2998 colon): 21.2 µM
- GI50 (SK-MEL-28 melanoma): 0.965 µM
- TGI (SK-MEL-28 melanoma): 8.46 µM
- GI50 (RPMI-8226 leukemia): 0.562 µM
- TGI (RPMI-8226 leukemia): 13.2 µM
- GI50 (OVCAR-4 ovarian): 3.11 µM
- TGI (OVCAR-4 ovarian): 19.2 µM
- GI50 (MDA-MB-435): 0.474 µM
- TGI (MDA-MB-435): 16.1 µM
- GI50 (SW-620 colon): 0.234 µM
- TGI (SW-620 colon): 14.1 µM
- GI50 (HT29 colon): 0.374 µM
- TGI (HT29 colon): 14.5 µM
- GI50 (SK-OV-3 ovarian): 4.3 µM
- TGI (SK-OV-3 ovarian): 18.9 µM
- GI50 (HCT-15 colon): 0.464 µM
- TGI (HCT-15 colon): > 51.3 µM
- GI50 (UACC-62 melanoma): 0.344 µM
- TGI (UACC-62 melanoma): 14.3 µM
- GI50 (CAKI-1 renal): 2.04 µM
- TGI (CAKI-1 renal): 18.2 µM
- GI50 (SF-268 CNS): 0.493 µM
- TGI (SF-268 CNS): 17.7 µM
- GI50 (NCI/ADR-RES ovarian): 5.28 µM
- TGI (NCI/ADR-RES ovarian): > 100 µM
- GI50 (UO-31 renal): 6.22 µM
- TGI (UO-31 renal): 23.6 µM
- GI50 (HCT-116 colon): 0.346 µM
- TGI (HCT-116 colon): > 38.3 µM
- GI50 (M14 melanoma): 0.421 µM
- TGI (M14 melanoma): 17.8 µM
- GI50 (KM12 colon): 0.551 µM
- TGI (KM12 colon): 14.4 µM
- GI50 (NCI-H460 lung): 0.117 µM
- TGI (NCI-H460 lung): 13.5 µM
- GI50 (LOX IMVI melanoma): 0.242 µM
- TGI (LOX IMVI melanoma): 13.4 µM
- GI50 (NCI-H522 lung): 0.53 µM
- TGI (NCI-H522 lung): 13.4 µM
- GI50 (OVCAR-5 ovarian): 0.666 µM
- TGI (OVCAR-5 ovarian): 22.8 µM
- GI50 (A498 renal): 3.19 µM
- TGI (A498 renal): 18.9 µM
- GI50 (HS 578T breast): 4.05 µM
- TGI (HS 578T breast): 30.9 µM
- GI50 (U251 CNS): 0.291 µM
- TGI (U251 CNS): 15.4 µM
